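How tested: cells in 96-well plates exposed to compound for 48 hours at five concentrations. GI50 marks 50% less growth.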 Active and inactive are the calls of the source. Cut-off read from the data, not from the text of the source: active = GI50 up to about 1.1 µM and inactive = higher.
Key:
Assay in all cases: DTP human tumour cell line panel, 48 h
[1] = test system: IGROV-1
[2] = test system: SK-OV-3
[3] = test system: U-251
[4] = test system: NCI-H23
[5] = test system: PC-3
[6] = test system: HOP-92
[7] = test system: OVCAR-8
[8] = test system: NCI-H460
[9] = test system: MCF7
[10] = test system: HL-60
[11] = test system: Malme-3M
[12] = test system: CCRF-CEM
[13] = test system: HCC 2998
[14] = test system: TK-10
[15] = test system: SF-539
[16] = test system: KM12
[17] = test system: OVCAR-5
[18] = test system: OVCAR-3
[19] = test system: LOX IMVI
[20] = test system: A549

| SMILES | GI50 [1] | GI50 [2] | GI50 [3] | GI50 [4] | GI50 [5] | GI50 [6] | GI50 [7] | GI50 [8] | GI50 [9] | GI50 [10] | GI50 [11] | GI50 [12] | GI50 [13] | GI50 [14] | GI50 [15] | GI50 [16] | GI50 [17] | GI50 [18] | GI50 [19] | GI50 [20] |
| --- | --- | --- | --- | --- | --- | --- | --- | --- | --- | --- | --- | --- | --- | --- | --- | --- | --- | --- | --- | --- |
| Cc1ccc(CN2CCN(Cc3ccc(C)o3)C(C)C2)o1 (stereo not given) | > 100 µM (inactive) | > 100 µM (inactive) | > 100 µM (inactive) | > 100 µM (inactive) | > 100 µM (inactive) | > 100 µM (inactive) | > 100 µM (inactive) | > 100 µM (inactive) | > 100 µM (inactive) | > 100 µM (inactive) | > 100 µM (inactive) | > 100 µM (inactive) | > 100 µM (inactive) | > 100 µM (inactive) | > 100 µM (inactive) | > 100 µM (inactive) | > 100 µM (inactive) | > 100 µM (inactive) | > 100 µM (inactive) | > 100 µM (inactive) |
| O=C1CCc2ccc3c(c21)CC1(Cc2ccccc2C1)C3 | 13.3 µM (inactive) | 41.4 µM (inactive) | 8.05 µM (inactive) | 11.6 µM (inactive) | 8.73 µM (inactive) | 5.96 µM (inactive) | 7.62 µM (inactive) | 2.57 µM (inactive) | 19.2 µM (inactive) | 2.11 µM (inactive) | 10.5 µM (inactive) | 10.6 µM (inactive) | 14.4 µM (inactive) | 11.1 µM (inactive) | 5.45 µM (inactive) | 7.52 µM (inactive) | 11.3 µM (inactive) | 4.01 µM (inactive) | 2.59 µM (inactive) | 7.78 µM (inactive) |
| CC1CC(C)(O)CC(C(O)CC2CC(=O)NC(=O)C2)C1=O (stereo not given) [RESACTIN A] | 0.0292 µM (active) | 0.0818 µM (active) | 0.0313 µM (active) | 0.0413 µM (active) | 0.0465 µM (active) | < 0.02 µM (active) | 0.0266 µM (active) | 0.0385 µM (active) | 0.0379 µM (active) | 0.0392 µM (active) | 0.0546 µM (active) | < 0.014 µM (active) | 0.0441 µM (active) | 0.187 µM (active) | 0.0197 µM (active) | 0.0327 µM (active) | 0.059 µM (active) | 0.0566 µM (active) | 0.0283 µM (active) | 0.0513 µM (active) |
